ChEMBL document CHEMBL1221326, “Synthesis, biological evaluation, and docking studies of novel heterocyclic diaryl compounds as selective COX-2 inhibitors” (Bioorg Med Chem, 2010)

Columns and labels:
[1] = target: T1, Prostaglandin G/H synthase 1 (Ovis aries) (UniProt P05979); test: Inhibition of sheep COX1 at 10 uM by enzyme immunoassay
T1 sequence (whole entry): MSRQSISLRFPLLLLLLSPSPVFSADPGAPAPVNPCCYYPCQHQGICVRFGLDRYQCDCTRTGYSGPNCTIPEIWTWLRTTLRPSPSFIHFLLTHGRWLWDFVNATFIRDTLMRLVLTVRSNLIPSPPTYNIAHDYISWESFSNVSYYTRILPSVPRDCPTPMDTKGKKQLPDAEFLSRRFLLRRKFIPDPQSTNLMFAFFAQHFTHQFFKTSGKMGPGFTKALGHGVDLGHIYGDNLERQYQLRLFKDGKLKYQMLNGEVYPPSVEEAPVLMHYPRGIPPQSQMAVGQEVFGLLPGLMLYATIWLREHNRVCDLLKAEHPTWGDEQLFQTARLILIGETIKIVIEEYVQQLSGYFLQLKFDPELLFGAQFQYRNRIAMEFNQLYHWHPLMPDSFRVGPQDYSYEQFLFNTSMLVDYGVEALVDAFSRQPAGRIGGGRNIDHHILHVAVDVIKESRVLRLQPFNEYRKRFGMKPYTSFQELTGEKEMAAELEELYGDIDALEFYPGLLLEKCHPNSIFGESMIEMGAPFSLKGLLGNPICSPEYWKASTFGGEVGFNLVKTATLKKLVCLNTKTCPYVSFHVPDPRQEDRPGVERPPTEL

[2] = target: T2, Prostaglandin G/H synthase 1 (Ovis aries, UniProt P05979); test: Inhibition of sheep COX1 by enzyme immunoassay
T2 sequence (P05979 whole entry): T1 sequence (whole entry)

Ovis aries = organism: Ovis aries; test: Selectivity index, ratio of IC50 for sheep COX1 to IC50 for sheep COX2

| Compound | inhibition [1] | IC50 [2] | Ratio IC50 (Ovis aries) |
| --- | --- | --- | --- |
| Cn1c(=O)oc2cc(-c3cc(C(F)(F)F)nn3-c3ccc(Cl)cc3)ccc21 | 91.2% | 1000 nM | – |
| Cn1c(=O)oc2cc(-c3cc(C(F)(F)F)nn3-c3ccc(F)cc3)ccc21 | 55.5% | 6000 nM | 6 |
| COc1ccc(-n2nc(C(F)(F)F)cc2-c2ccc3c(c2)oc(=O)n3C)cc1 | 95.6% | 4 nM | – |
| COc1ccc(C2=C(c3ccc4c(c3)oc(=O)n4C)COC2=O)cc1 | 59.8% | 61 nM | – |
